Assay results reported in ChEMBL document CHEMBL1126444, “Synthesis and structure-activity relationships of heterocyclic analogues of the functional M1 selective muscarinic agonist hexyloxy-TZTP” (Bioorg Med Chem Lett, 1992).

How the values were obtained:
[1] = organism: Oryctolagus cuniculus; test: Percent maximum inhibition of the twitch response in the electrically stimulated rabbit vas deferens was determined.; format: functional
[2] = molecular target: Muscarinic acetylcholine receptor; test: Displacement of [3H]-OXO-M (oxotremorine-M) from the central muscarinic receptor sites of the rat brain membranes; format: cell membranes, Membrane
[3] = molecular target: T1, Muscarinic acetylcholine receptor M1 (Rattus norvegicus, UniProt P08482); test: Displacement of [3H]-Pz (pirenzepine) from the muscarinic receptor M1 of the rat hippocampus; format: tissue-based
T1 sequence (P08482 whole entry): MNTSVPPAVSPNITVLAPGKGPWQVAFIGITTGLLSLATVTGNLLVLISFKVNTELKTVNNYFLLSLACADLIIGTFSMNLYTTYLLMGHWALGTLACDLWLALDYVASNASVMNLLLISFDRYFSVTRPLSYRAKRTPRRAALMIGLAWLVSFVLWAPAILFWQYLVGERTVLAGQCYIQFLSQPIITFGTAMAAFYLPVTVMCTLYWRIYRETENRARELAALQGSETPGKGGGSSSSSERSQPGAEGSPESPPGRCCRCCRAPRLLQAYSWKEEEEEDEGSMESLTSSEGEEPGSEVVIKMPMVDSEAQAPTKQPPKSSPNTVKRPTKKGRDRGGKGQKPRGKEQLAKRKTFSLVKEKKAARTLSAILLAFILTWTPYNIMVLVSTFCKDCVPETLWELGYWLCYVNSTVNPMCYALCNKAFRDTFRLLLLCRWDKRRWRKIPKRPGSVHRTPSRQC

[4] = organism: Oryctolagus cuniculus; test: Compound was evaluated for the inhibition of the twitch response in the electrically stimulated rabbit vas deferens; format: functional

IC50 [2] | IC50 [3] | IC50 [4] | Structure (SMILES) | Inhibition [1]
> 900 nM | 715 nM |  | CCCCCCOc1nscc1C1=CCCN(C)C1 | 43%
> 900 nM | 663 nM | 39000 nM | CCCCCCOc1cscc1C1=CCCN(C)C1 | 93%
24 nM |  |  | CCCCOc1nonc1C1=CCCN(C)C1 | 12%
70 nM |  |  | CCCCCCOc1nonc1C1=CCCN(C)C1 | 47%
1.4 nM |  |  | CCCCOc1nsnc1C1=CCCN(C)C1 | 

Further lines, the molecule ahead of its results:

Structure (SMILES) | IC50 [2] | IC50 [3] | IC50 [4] | Inhibition [1]
CCCCOc1cscc1C1=CCCN(C)C1 | 477 nM | 369 nM |  | 18%
CCCCOc1nscc1C1=CCCN(C)C1 | 544 nM | 565 nM |  | 18%
CCCCOc1noc(C)c1C1=CCCN(C)C1 | 759 nM |  |  | 
CCCCCCOc1nsnc1C1=CCCN(C)C1 [XANOMELINE] |  |  |  | 88%
C[N+](C)(C)CC#CCOC(=O)Nc1cccc(Cl)c1.[Cl-] | 355 nM |  |  | 91%
